From patent publication US7135466B2 (Kirin Beer Kabushiki Kaisha, priority 1999, dated 2006)
Like-named read-outs stand apart in the source and are kept apart here.

Legend:
PDGF-Ra = molecular target: T1, PDGF-Ra (Homo sapiens, UniProt P16234); assay: Inhibitory activity against PDGF-Ra phosphorylation by PDGF-AA stimulation using G292; type: cell-based; conditions: for IC50: > means inhibition at indicated concentration not more than 50%, < and << not less than 50%, read-out: PDGF (E) IC50; for inhibition at 0.1 µM: G292, at 100 nM, read-out: PDGF (E) inhibition (%) at 100 nM
T1 construct: host or cells: G-292 human osteosarcoma cells
In short: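 G-292 human osteosarcoma cells, serum-starved overnight in 0.1% FBS, were pretreated with compound in DMSO for 1 hr at 37 °C, then stimulated with 50 ng/ml PDGF-AA for 5 min. Lysates were captured on anti-phosphotyrosine PY-20 plates and probed with anti-PDGF-Ra plus HRP secondary; absorbance read at 450 nm.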

c-kit = molecular target: T2, c-kit (Homo sapiens, UniProt P10721); assay: Inhibitory activity against c-kit autophosphorylation (MO7e cells, h-SCF); type: cell-based; conditions: for inhibition at 1 µM: Mo7e, at 1000 nM; for IC50: MO7e cells, read-out: c-kit IC50
T2 construct: MO7e (human megakaryocytic leukemia cell line) which had been arrested for 20 hr; endogenous in cells; host or cells: MO7e human megakaryocytic leukemia cell line
In short: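 In this cellular autophosphorylation assay, compound-treated MO7e cells (1 hr) were challenged with human stem cell factor at 50 ng/ml for 5 min; detection relied on PY-20 capture and anti-c-kit/HRP immunodetection at 450 nm.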

[1] = figure within parentheses in >100( )
[2] = figure in parentheses in >100( )
[3] = figure within parentheses in −( ) or >1000( )

T1 sequence (P16234 24-1089): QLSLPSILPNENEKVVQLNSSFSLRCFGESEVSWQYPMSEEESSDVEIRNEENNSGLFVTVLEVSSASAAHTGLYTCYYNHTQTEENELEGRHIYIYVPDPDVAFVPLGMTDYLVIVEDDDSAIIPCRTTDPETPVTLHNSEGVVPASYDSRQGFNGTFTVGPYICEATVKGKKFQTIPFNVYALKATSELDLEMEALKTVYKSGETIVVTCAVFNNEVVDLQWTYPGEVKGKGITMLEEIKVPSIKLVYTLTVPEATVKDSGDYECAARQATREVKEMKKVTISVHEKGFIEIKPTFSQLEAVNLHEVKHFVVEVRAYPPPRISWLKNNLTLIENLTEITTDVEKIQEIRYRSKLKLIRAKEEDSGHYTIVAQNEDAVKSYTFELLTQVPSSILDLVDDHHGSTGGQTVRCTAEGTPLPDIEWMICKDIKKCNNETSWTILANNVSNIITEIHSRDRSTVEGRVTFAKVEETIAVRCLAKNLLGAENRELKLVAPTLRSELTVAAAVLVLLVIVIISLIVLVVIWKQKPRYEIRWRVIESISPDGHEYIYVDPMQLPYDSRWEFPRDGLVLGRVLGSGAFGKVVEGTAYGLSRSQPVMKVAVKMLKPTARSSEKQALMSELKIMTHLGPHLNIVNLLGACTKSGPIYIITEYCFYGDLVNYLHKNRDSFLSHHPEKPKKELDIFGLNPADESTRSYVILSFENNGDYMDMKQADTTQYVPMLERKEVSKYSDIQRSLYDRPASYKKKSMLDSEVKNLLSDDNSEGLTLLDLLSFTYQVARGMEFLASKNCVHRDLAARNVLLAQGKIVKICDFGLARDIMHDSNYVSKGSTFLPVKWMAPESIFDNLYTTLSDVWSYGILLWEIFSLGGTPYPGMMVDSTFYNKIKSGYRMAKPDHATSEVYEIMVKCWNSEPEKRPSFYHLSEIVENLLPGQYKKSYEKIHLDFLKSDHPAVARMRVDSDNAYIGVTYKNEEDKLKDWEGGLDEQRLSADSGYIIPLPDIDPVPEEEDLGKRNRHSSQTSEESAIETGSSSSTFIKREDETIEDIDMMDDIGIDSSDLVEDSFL
T2 sequence (P10721 26-976): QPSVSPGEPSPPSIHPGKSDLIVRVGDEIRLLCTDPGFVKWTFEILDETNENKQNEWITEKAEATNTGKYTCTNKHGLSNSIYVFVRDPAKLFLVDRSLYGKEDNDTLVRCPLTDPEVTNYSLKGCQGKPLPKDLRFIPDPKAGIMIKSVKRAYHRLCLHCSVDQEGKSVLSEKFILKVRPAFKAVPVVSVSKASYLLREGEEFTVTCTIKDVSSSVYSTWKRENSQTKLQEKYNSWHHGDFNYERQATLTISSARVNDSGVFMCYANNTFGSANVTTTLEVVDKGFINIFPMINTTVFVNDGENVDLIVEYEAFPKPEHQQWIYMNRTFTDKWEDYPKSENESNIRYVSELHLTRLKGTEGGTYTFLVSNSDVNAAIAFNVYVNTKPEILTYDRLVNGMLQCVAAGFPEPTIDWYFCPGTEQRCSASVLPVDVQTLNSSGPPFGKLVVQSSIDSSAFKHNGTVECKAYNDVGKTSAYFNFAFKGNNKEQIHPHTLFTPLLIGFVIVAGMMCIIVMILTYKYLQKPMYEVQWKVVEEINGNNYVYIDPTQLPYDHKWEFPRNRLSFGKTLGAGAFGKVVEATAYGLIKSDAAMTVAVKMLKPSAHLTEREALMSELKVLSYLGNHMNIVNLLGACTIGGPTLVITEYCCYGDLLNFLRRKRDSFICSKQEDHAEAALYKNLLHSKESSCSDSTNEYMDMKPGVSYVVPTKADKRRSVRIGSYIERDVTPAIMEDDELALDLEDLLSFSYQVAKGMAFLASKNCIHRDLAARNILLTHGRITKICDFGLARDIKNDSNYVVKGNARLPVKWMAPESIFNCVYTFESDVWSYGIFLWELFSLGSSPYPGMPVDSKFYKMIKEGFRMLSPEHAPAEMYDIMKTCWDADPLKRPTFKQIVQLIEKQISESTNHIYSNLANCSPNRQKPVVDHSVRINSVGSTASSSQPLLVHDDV

## COc1cc2nccc(Oc3ccc(NC(=S)NC(=O)N4c5ccccc5CCc5ccccc54)cc3Cl)c2cc1OC [Example 1054, N-{3-Chloro-4-[(6,7-dimethoxy-4-quinolyl)oxy]phenyl}-N′-[10,11-dihydro-5H-dibenzo(b,f)azepin-5-ylcarbonyl]thiourea]
PDGF-Ra
  IC50: 27 nM
c-kit; figure in parentheses in −( )
  inhibition at 1 µM: 19%

## COc1cc2nccc(Oc3ccc(NC(=O)OC(C)C)cc3)c2cc1OC [Example 324, Isopropyl N-{4-[(6,7-dimethoxy-4-quinolyl)oxy]phenyl}carbamate]
PDGF-Ra; Pharmacological Test Example 1
  IC50: 12 nM
c-kit; h-SCF 50 ng/ml
  IC50: 64 nM

## CCCC(CCC)OC(=O)Nc1ccc(Oc2ncnc3cc(OC)c(OC)cc23)cc1 [Example 400, 1-Propylbutyl N-{4-[(6,7-dimethoxy-4-quinazolinyl)oxy]phenyl}carbamate]
PDGF-Ra
  IC50: < 10 nM
c-kit; 50 ng/ml h-SCF
  IC50: 671 nM

## COc1cc2ncnc(Oc3ccc(NC(=O)NC4CCN(Cc5ccccc5C)C4)cc3)c2cc1OC (stereo not drawn) [Example 569, N-{4-[(6,7-Dimethoxy-4-quinazolinyl)oxy]phenyl}-N′-[1-(2-methylbenzyl)tetrahydro-1H-3-pyrrolyl]urea]
PDGF-Ra
  IC50: 12 nM
c-kit; 50 ng/ml h-SCF
  IC50: 168 nM

## COc1cc2nccc(Oc3ccc(NC(=O)OCc4ccncc4)cc3)c2cc1OC [Example 433, 4-Pyridylmethyl N-{4-[(6,7-dimethoxy-4-quinolyl)oxy]phenyl}carbamate]
PDGF-Ra
  IC50: 11 nM
c-kit; 50 ng/ml h-SCF
  IC50: < 30 nM

## CCCC(CCN1CCN(C)CC1)OC(=O)Nc1ccc(Oc2ccnc3cc(OC)c(OC)cc23)cc1 (stereo not drawn) [Example 449, 1-[2-(4-Methylpiperazino)ethyl]butyl N-{4-[(6,7-dimethoxy-4-quinolyl)oxy]phenyl}carbamate]
PDGF-Ra
  IC50: > 100 nM
PDGF-Ra; [1]
  inhibition at 0.1 µM: 26%
c-kit; 50 ng/ml h-SCF
  IC50: 747 nM

## COc1cc2nccc(Oc3cc(C)c(NC(=O)OCc4ccc(Cl)cc4)cc3C)c2cc1OC [Example 243, 4-Chlorobenzyl N-{4-[(6,7-dimethoxy-4-quinolyl)oxy]-2,5-dimethylphenyl}carbamate]
PDGF-Ra; Pharmacological Test Example 1
  IC50: 20 nM
c-kit; h-SCF 50 ng/ml
  IC50: 190 nM

## CCCC(OC(=O)Nc1ccc(Oc2ccnc3cc(OC)c(OC)cc23)cc1)c1ccccc1 (stereo not drawn) [Example 184, 1-Phenylbutyl N{4-[(6,7-dimethoxy-4-quinolyl)oxy]phenyl}carbamate]
PDGF-Ra; Pharmacological Test Example 1
  IC50: 38 nM
c-kit; h-SCF 50 ng/ml
  IC50: 369 nM

## COc1cc2nccc(Oc3ccc(NC(=O)NC4CCN(Cc5ccccc5C)C4)cc3)c2cc1OC (stereo not drawn) [Example 574, N-{4-[(6,7-Dimethoxy-4-quinolyl)oxy]phenyl}-N′-[1-(2-methylbenzyl)tetrahydro-1H-3-pyrrolyl]urea]
PDGF-Ra
  IC50: 45 nM
c-kit; 50 ng/ml h-SCF
  IC50: 147 nM

## COc1cc2nccc(Oc3ccc(NC(=O)OCCOc4ccccc4F)cc3)c2cc1OC [Example 203, 2-(2-Fluorophenoxy)ethyl N-{4-[(6,7-dimethoxy-4-quinolyl)oxy]phenyl}carbamate]
PDGF-Ra; Pharmacological Test Example 1
  IC50: 25 nM
c-kit; h-SCF 50 ng/ml
  IC50: 169 nM

## COc1cc2nccc(Oc3ccc(NC(=S)NC(=O)c4ccccc4)c(Cl)c3)c2cc1OC [Example 1107, N-Benzoyl-N′-{2-chloro-4-[(6,7-dimethoxy-4-quinolyl)oxy]phenyl}thiourea]
PDGF-Ra
  IC50: > 100 nM
PDGF-Ra; [2]
  inhibition at 0.1 µM: 46%
c-kit; figure in parentheses in −( )
  inhibition at 1 µM: 24%

## CCCCC(CCCC)OC(=O)Nc1ccc(Oc2ccnc3cc(OC)c(OC)cc23)c(C)c1C [Example 370, 1-Butylpentyl N-{4-[(6,7-dimethoxy-4-quinolyl)oxy]-2,3-dimethylphenyl}carbamate]
PDGF-Ra; Pharmacological Test Example 1
  IC50: 74 nM
c-kit; h-SCF 50 ng/ml
  IC50: 585 nM

## COc1cc2ncnc(Oc3ccc(NC(=O)OC(C)c4ccc(C)cc4)cc3)c2cc1OC (stereo not drawn) [Example 135, 1-(4-Methylphenyl)ethyl N{4-[(6,7-dimethoxy-4-quinazolinyl)oxy]phenyl}carbamate]
PDGF-Ra; Pharmacological Test Example 1
  IC50: 18 nM
c-kit; h-SCF 50 ng/ml
  IC50: 475 nM

## CCCCC(CCCC)OC(=O)Nc1ccc(Oc2ncnc3cc(OC)c(OC)cc23)cc1 [Example 371, 1-Butylpentyl N-{4-[(6,7-dimethoxy-4-quinazolinyl)oxy]phenyl}carbamate]
PDGF-Ra; Pharmacological Test Example 1
  IC50: < 10 nM
c-kit; h-SCF 50 ng/ml
  IC50: 541 nM

## COc1ccccc1COC(=O)Nc1ccc(Oc2ncnc3cc(OC)c(OC)cc23)cc1OC [Example 500, 2-Methoxybenzyl N-{4-[(6,7-dimethoxy-4-quinazolinyl)oxy]-2-methoxyphenyl}carbamate]
PDGF-Ra
  IC50: 14 nM
c-kit; 50 ng/ml h-SCF
  IC50: 199 nM

## COc1cc2nccc(Oc3ccc(NC(=S)NC(=O)c4ccccc4C)c(Cl)c3)c2cc1OC [Example 1101, N-{2-Chloro-4-[(6,7-dimethoxy-4-quinolyl)oxy]phenyl}-N′-(2-methylbenzoyl)thiourea]
PDGF-Ra
  IC50: > 100 nM
PDGF-Ra; [2]
  inhibition at 0.1 µM: 37%
c-kit; figure in parentheses in −( )
  inhibition at 1 µM: 26%

## CCOCCC(=O)NC(=S)Nc1ccc(Oc2ccnc3cc(OC)c(OC)cc23)c(Cl)c1 [Example 1071, N-{3-Chloro-4-[(6,7-dimethoxy-4-quinolyl)oxy]phenyl}-N′-(3-ethoxypropanoyl)thiourea]
PDGF-Ra
  IC50: > 100 nM
PDGF-Ra; [2]
  inhibition at 0.1 µM: 17%
c-kit; figure in parentheses in −( )
  inhibition at 1 µM: 0%

## CCN(CC)CCCOC(=O)Nc1ccc(Oc2ccnc3cc(OC)c(OC)cc23)c(C)c1C [Example 428, 3-(Diethylamino)propyl N-{4-[(6,7-dimethoxy-4-quinolyl)oxy]-2,3-dimethylphenyl}carbamate]
PDGF-Ra
  IC50: 64 nM
c-kit; 50 ng/ml h-SCF
  IC50: 158 nM

## CCN(CC)CCOc1ccc(Oc2ncnc3cc(OC)c(OC)cc23)cc1 [Example 807, N-(2-{4-[(6,7-Dimethoxy-4-quinazolinyl)oxy]phenoxy}ethyl)-N,N-diethylamine]
PDGF-Ra
  IC50: > 100 nM
PDGF-Ra; [1]
  inhibition at 0.1 µM: 20%
c-kit; [3]
  inhibition at 1 µM: 20%

## COc1cc2nccc(Oc3ccc(NC(=S)NC(=O)C4(C)CCCCC4)cc3Cl)c2cc1OC [Example 1192, N-{3-Chloro-4-[(6,7-dimethoxy-4-quinolyl)oxy]phenyl}-N′-[(1-methylcyclohexyl)carbonyl]thiourea]
PDGF-Ra
  IC50: 19 nM
c-kit; h-SCF stimulation
  IC50: 672 nM

## COc1cc2nccc(Oc3ccc(NC(=S)NC(=O)c4ccc(Cl)s4)cc3Cl)c2cc1OC [Example 695, N-{3-Chloro-4-[(6,7-dimethoxy-4-quinolyl)oxy]phenyl}-N′-[(5-chloro-2-thienyl)carbonyl]thiourea]
PDGF-Ra
  IC50: > 100 nM
PDGF-Ra; [1]
  inhibition at 0.1 µM: 10%
c-kit; [3]
  inhibition at 1 µM: 37%

## COc1cc2nccc(Oc3ccc(NC(=S)NC(=O)C4CCCC4)cc3Cl)c2cc1OC [Example 1182, N-{3-Chloro-4-[(6,7-dimethoxy-4-quinolyl)oxy]phenyl}-N′-cyclopentylcarbonylthiourea]
PDGF-Ra
  IC50: < 10 nM
c-kit; h-SCF stimulation
  IC50: 206 nM

## COc1cc2nccc(Oc3cc(C)c(NCCCOc4ccccc4C)cc3C)c2cc1OC [Example 889, N-{4-[(6,7-Dimethoxy-4-quinolyl)oxy]-2,5-dimethylphenyl}-N-[3-(2-methylphenoxy)propyl]amine]
PDGF-Ra
  IC50: > 100 nM
PDGF-Ra; [2]
  inhibition at 0.1 µM: 30%
c-kit; figure in parentheses in −( )
  inhibition at 1 µM: 28%

## COc1cc2nccc(Oc3cc(C)c(NC(=O)OC(C)c4ccccc4F)cc3C)c2cc1OC (stereo not drawn) [Example 124, 1-(2-Fluorophenyl)ethyl N-{4-[(6,7-dimethoxy-4-quinolyl)oxy]-2,5-dimethylphenyl}carbamate]
PDGF-Ra; Pharmacological Test Example 1
  IC50: 42 nM
c-kit; figure in parentheses in −( )
  inhibition at 1 µM: 39%

## CCCCC(C)C(=O)NC(=S)Nc1ccc(Oc2ccnc3cc(OC)c(OC)cc23)c(Cl)c1 (stereo not drawn) [Example 1077, N-{3-Chloro-4-[(6,7-dimethoxy-4-quinolyl)oxy]phenyl}-N′-(2-methylhexanoyl)thiourea]
PDGF-Ra
  IC50: 48 nM
c-kit; h-SCF stimulation
  IC50: 379 nM

## CCCCCC(=O)NC(=S)Nc1ccc(Oc2ncnc3cc(OC)c(OC)cc23)cc1 [Example 1189, N-{4-[(6,7-Dimethoxy-4-quinazolinyl)oxy]phenyl}-N′-hexanoylthiourea]
PDGF-Ra
  IC50: 26 nM
c-kit; h-SCF stimulation
  IC50: 73 nM

## COc1cc2nccc(Oc3ccc(NC(=O)OCC4CC4)cc3)c2cc1OC [Example 380, Cyclopropylmethyl N-{4-[(6,7-dimethoxy-4-quinolyl)oxy]phenyl}carbamate]
PDGF-Ra; Pharmacological Test Example 1
  IC50: < 10 nM
c-kit; h-SCF 50 ng/ml
  IC50: 45 nM

## COc1cc2nccc(Oc3cc(C)c(NC(=O)OCCCN4CCN(C)CC4)cc3C)c2cc1OC [Example 425, 3-(4-Methylpiperazino)propyl N-{4-[(6,7-dimethoxy-4-quinolyl)oxy]-2,5-dimethylphenyl}carbamate]
PDGF-Ra
  IC50: > 100 nM
PDGF-Ra; [1]
  inhibition at 0.1 µM: 5%
c-kit; 50 ng/ml h-SCF
  IC50: 464 nM

## COc1cc2ncnc(Oc3ccc(NC(=O)OC(C)c4ccccc4F)cc3)c2cc1OC (stereo not drawn) [Example 125]
PDGF-Ra; Pharmacological Test Example 1
  IC50: < 10 nM
c-kit; h-SCF 50 ng/ml
  IC50: 671 nM

## COc1cc2ncnc(Oc3ccc(N(C)C(=O)OCc4ccccc4C)cc3)c2cc1OC [Example 491, 2-Methylbenzyl N-{4-[(6,7-dimethoxy-4-quinazolinyl)oxy]phenyl}-N-methylcarbamate]
PDGF-Ra
  IC50: 24 nM
c-kit; 50 ng/ml h-SCF
  IC50: 315 nM

## COc1cc2nccc(Oc3cc(C)c(NC(=O)OCC4CCCCCC4)cc3C)c2cc1OC [Example 349, Cycloheptylmethyl N-{4-[(6,7-dimethoxy-4-quinolyl)oxy]-2,5-dimethylphenyl}carbamate]
PDGF-Ra; Pharmacological Test Example 1
  IC50: 12 nM
c-kit; h-SCF 50 ng/ml
  IC50: 309 nM

## COc1cc2nccc(Oc3ccc(NC(=S)NC(=O)Cc4ccccc4C)cc3Cl)c2cc1OC [Example 702, N-{3-Chloro-4-[(6,7-dimethoxy-4-quinolyl)oxy]phenyl}-N′-[2-(2-methylphenyl)acetyl]thiourea]
PDGF-Ra
  IC50: < 10 nM
c-kit; 50 ng/ml h-SCF
  IC50: 495 nM
